Source: paper PMC6348381, “Discovery of an MLLT1/3 YEATS Domain Chemical Probe” (Angewandte Chemie (International Ed. in English), 2018)

Key:
Assay type in all cases: binding
BAZ2A = target: T1, BAZ2A (Homo sapiens, UniProt Q9UIF9); assay: Thermal shift assay, BAZ2A
T1 construct: purchased in-house (SGC bromodomain thermal shift / AlphaScreen panel)
Procedure: (§1) II.VII Thermal Shift Assay[6]
(§2) Thermal melting experiments were carried out using an Mx3005p Real Time PCR machine (Stratagene). Proteins were buffered in 10 mM HEPES pH 7.5, 500 mM NaCl and assayed in a 96-well plate at a final concentration of 2 μM in 20 μL volume. Compounds were added at a final concentration of 50 μM. SYPRO Orange (Molecular Probes) was added as a fluorescence probe at a dilution of 1:1000. Excitation and emission filters for the SYPRO-Orange dye were set to 465 nm and 590 nm, respectively. The temperature was raised with a step of 3 °C per minute from 25 °C to 96 °C and fluorescence readings were taken at each interval. The unfolding curves were fitted using the Boltzmann equation to determine the middle point of the transition.

BRD3(2) = target: T2, BRD3(2) (Homo sapiens, UniProt Q15059); assay: Thermal shift assay, BRD3(2)
T2 construct: BRD3(2); purchased in-house (SGC bromodomain thermal shift / AlphaScreen panel)
Procedure: as §1, §2

BRD7 = target: T3, BRD7 (Homo sapiens, UniProt Q9NPI1); assay: Thermal shift assay, BRD7
T3 construct: purchased in-house (SGC bromodomain thermal shift / AlphaScreen panel)
T3 sequence (Q9NPI1 1-651): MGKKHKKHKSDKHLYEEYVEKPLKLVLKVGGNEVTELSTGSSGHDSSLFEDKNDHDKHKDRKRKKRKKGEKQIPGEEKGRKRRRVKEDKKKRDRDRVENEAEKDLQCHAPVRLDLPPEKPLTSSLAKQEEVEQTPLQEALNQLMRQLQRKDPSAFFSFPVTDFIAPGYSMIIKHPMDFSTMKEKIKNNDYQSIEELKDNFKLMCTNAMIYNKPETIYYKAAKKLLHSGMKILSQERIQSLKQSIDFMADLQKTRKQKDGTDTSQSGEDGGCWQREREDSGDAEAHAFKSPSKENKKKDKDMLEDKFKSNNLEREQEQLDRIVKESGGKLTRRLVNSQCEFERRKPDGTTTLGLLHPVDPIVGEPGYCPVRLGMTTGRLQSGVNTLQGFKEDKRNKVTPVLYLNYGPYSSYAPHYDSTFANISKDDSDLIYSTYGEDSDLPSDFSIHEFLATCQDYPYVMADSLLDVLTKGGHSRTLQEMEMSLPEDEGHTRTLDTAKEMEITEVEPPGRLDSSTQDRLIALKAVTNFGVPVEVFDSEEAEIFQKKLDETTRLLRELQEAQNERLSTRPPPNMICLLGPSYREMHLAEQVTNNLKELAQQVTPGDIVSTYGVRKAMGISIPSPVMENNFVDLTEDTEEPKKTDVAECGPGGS
Procedure: as §1, §2

BRPF3 = target: T4, BRPF3 (Homo sapiens, UniProt Q9ULD4); assay: Thermal shift assay, BRPF3
T4 construct: purchased in-house (SGC bromodomain thermal shift / AlphaScreen panel)
T4 sequence (Q9ULD4 1-1205): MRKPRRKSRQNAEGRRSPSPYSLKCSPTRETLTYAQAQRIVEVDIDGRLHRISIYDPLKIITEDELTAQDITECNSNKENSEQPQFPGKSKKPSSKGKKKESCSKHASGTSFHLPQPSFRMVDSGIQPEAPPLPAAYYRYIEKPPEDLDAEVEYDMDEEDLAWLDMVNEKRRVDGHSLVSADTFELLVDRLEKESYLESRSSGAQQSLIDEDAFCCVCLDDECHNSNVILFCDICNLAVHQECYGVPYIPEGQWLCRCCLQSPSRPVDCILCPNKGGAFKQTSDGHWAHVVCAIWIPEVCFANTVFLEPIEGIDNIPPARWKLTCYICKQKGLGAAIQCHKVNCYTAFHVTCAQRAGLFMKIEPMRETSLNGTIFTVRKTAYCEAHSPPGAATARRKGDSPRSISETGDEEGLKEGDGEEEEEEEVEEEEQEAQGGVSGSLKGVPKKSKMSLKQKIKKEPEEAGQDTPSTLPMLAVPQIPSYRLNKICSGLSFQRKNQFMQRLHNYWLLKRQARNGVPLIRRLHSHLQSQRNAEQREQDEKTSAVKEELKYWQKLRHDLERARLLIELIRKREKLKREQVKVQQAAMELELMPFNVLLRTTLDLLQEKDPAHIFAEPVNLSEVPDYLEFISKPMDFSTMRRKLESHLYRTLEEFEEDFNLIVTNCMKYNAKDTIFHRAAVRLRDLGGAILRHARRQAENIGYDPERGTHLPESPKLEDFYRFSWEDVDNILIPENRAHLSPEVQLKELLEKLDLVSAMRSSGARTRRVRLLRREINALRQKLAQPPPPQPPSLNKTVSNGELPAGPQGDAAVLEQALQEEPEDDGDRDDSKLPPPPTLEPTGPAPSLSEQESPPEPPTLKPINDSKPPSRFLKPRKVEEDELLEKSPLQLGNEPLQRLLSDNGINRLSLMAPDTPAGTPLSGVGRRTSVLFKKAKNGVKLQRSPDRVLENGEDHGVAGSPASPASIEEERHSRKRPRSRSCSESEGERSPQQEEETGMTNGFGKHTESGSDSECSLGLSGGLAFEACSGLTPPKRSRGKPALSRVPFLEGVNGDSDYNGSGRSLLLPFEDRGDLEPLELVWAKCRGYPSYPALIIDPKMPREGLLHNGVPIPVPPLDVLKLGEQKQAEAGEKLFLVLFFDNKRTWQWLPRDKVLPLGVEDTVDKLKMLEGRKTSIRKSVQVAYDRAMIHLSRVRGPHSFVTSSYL
Procedure: as §1, §2

CREBBP = target: T5, CREBBP (Homo sapiens, UniProt Q92793); assay: Thermal shift assay, CREBBP
T5 construct: purchased in-house (SGC bromodomain thermal shift / AlphaScreen panel)

EP300 = target: T6, EP300 (Homo sapiens, UniProt Q09472); assay: Thermal shift assay, EP300
T6 construct: purchased in-house (SGC bromodomain thermal shift / AlphaScreen panel)
Procedure: as §1, §2

T6 sequence (Q09472 whole entry): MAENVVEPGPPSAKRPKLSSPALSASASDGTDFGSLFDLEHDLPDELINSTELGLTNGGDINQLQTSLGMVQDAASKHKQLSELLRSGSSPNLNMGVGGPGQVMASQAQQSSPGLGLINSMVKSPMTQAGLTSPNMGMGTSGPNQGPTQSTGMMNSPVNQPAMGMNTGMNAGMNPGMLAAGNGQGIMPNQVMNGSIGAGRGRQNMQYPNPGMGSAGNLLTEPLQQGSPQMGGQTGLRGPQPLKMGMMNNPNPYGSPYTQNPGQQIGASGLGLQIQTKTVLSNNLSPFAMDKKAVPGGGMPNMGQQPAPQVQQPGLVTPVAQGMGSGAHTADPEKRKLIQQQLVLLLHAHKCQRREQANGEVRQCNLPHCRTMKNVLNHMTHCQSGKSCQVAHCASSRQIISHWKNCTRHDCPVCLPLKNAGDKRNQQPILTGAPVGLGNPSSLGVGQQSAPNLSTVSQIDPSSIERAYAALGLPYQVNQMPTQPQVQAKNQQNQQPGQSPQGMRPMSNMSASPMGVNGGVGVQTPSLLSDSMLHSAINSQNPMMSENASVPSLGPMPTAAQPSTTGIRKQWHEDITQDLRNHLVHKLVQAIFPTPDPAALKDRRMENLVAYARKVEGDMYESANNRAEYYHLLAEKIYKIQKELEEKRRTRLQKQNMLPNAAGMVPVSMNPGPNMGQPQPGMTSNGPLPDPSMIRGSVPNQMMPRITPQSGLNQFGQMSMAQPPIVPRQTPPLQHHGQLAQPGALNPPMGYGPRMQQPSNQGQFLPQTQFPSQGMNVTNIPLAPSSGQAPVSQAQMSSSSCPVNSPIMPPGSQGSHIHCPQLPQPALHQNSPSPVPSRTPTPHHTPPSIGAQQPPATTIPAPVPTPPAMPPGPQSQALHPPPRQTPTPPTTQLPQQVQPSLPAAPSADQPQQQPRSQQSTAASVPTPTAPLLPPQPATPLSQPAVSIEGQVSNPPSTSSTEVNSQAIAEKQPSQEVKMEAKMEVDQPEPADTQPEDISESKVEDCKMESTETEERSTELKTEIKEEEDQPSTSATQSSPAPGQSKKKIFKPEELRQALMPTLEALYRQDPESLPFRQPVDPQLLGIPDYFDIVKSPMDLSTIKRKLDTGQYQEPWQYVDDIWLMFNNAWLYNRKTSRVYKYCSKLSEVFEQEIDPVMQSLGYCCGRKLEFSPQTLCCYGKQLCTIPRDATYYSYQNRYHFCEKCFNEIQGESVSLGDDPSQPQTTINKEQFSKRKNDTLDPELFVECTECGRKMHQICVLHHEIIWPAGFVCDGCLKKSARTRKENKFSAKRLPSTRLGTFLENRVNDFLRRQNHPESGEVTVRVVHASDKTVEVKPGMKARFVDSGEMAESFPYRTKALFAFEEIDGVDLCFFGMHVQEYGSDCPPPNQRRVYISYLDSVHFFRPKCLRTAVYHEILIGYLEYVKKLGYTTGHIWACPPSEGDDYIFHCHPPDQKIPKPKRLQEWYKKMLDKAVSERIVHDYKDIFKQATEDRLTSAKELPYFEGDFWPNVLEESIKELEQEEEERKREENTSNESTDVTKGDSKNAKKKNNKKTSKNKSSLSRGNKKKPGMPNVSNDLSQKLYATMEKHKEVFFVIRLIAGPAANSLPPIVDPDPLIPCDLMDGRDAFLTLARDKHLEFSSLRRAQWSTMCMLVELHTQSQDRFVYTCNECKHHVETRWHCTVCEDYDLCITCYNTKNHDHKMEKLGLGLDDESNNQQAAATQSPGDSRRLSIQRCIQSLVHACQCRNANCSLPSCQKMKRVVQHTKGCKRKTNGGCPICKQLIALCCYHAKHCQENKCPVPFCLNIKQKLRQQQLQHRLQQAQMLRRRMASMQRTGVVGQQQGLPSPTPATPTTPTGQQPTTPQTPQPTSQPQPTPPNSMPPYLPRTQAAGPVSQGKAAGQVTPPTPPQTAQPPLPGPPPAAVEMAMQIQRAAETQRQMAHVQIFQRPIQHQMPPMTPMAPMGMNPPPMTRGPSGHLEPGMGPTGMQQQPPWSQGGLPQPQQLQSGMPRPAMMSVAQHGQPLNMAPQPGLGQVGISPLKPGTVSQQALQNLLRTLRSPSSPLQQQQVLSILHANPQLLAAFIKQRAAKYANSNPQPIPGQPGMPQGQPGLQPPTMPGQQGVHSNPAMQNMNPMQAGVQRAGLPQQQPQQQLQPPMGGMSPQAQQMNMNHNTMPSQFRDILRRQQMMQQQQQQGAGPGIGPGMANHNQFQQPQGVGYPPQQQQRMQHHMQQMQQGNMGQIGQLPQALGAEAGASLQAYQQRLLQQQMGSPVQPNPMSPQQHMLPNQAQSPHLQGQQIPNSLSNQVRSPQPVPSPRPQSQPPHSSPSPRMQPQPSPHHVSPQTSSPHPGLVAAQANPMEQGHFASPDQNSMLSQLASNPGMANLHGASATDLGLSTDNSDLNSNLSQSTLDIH
T1 sequence (Q9UIF9 whole entry): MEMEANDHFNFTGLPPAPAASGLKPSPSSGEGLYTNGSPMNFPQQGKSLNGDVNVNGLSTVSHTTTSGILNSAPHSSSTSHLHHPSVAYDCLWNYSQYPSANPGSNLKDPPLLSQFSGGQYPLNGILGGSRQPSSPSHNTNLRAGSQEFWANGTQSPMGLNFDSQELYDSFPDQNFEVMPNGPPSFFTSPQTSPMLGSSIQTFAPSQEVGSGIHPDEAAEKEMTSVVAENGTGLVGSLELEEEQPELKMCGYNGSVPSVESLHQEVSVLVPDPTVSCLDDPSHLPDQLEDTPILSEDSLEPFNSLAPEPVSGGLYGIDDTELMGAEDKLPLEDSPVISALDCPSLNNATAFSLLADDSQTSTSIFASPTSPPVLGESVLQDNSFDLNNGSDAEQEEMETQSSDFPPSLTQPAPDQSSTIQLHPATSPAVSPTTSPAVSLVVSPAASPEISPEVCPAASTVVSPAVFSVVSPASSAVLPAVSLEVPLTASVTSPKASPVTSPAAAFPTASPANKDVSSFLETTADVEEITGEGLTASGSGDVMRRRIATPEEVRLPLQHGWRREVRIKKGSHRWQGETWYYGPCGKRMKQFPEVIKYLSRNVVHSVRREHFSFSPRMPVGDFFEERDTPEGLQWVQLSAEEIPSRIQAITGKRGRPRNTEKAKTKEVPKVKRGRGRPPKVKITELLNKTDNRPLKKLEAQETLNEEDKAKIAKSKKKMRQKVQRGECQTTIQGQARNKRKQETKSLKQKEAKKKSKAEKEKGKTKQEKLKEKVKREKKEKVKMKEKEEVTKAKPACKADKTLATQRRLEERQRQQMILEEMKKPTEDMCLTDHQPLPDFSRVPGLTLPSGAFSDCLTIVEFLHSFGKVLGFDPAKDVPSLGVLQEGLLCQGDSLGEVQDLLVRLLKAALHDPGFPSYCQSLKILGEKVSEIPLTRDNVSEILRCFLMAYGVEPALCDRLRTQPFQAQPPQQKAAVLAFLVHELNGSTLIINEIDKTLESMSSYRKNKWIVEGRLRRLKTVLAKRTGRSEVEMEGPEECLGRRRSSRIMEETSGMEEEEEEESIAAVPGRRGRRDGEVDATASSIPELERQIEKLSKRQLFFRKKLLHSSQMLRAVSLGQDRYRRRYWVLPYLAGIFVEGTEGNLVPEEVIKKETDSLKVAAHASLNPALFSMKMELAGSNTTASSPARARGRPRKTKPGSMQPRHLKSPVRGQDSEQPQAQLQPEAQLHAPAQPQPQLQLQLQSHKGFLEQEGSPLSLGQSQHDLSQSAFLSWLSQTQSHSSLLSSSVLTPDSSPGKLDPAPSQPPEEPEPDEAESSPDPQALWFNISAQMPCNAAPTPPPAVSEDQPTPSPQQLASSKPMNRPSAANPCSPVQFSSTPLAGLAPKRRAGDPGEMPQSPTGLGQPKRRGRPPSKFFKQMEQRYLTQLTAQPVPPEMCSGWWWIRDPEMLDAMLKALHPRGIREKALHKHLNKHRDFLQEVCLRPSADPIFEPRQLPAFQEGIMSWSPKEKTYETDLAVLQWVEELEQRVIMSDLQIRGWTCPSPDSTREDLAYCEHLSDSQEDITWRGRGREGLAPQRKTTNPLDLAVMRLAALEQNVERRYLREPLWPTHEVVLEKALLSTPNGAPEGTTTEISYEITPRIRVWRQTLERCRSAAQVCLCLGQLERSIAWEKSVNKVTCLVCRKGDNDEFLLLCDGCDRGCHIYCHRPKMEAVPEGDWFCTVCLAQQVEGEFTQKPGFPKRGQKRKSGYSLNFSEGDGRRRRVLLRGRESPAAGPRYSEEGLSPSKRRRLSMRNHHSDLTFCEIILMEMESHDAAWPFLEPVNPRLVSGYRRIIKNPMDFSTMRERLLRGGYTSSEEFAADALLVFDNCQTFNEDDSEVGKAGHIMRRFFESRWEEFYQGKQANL
T2 sequence (Q15059 306-416 limits assumed): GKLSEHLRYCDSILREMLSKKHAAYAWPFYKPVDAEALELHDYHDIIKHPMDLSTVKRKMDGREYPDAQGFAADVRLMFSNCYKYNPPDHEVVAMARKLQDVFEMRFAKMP

Structure (SMILES) | Thermal stabilisation, BAZ2A (BAZ2A; 10 µM compound concentration) | Thermal stabilisation, BRD3(2) (BRD3(2); 10 µM compound concentration) | Thermal stabilisation, BRD7 (BRD7; 10 µM compound concentration) | Thermal stabilisation, BRPF3 (BRPF3; 10 µM compound concentration) | Thermal stabilisation, CREBBP (CREBBP; 10 µM compound concentration) | Thermal stabilisation, EP300 (EP300; 10 µM compound concentration) | Thermal stabilisation, BAZ2A (BAZ2A; 50 μM compound) | Thermal stabilisation, BRD3(2) (BRD3(2); 50 μM compound) | Thermal stabilisation, BRD7 (BRD7; 50 μM compound) | Thermal stabilisation, BRPF3 (BRPF3; 50 μM compound) | Thermal stabilisation, CREBBP (CREBBP; 50 μM compound) | Thermal stabilisation, EP300 (EP300; 50 μM compound)
CCOC(=O)Nc1cc(-c2ccc(C)c(NS(C)(=O)=O)c2)nn2c(C)nnc12 [Bromosporine, reference compound] | 1.125 | 6.56 | 8.48 | 1 | 3.31 | 3.66 |  |  |  |  |  | 
COC(=O)c1ccc(C(=O)Nc2ccc3[nH]c(CN4CCCCC4)nc3c2)cc1 [Compound 1] |  |  |  |  |  |  | 0.81 | 0.675 | 0.57 | 1.015 | 0.675 | 0.285
C[C@H]1CCCN1Cc1nc2cc(NC(=O)c3ccc4c(cnn4C)c3)ccc2[nH]1 [Compound 92] |  |  |  |  |  |  | 0.25 | -0.1 | -0.08 | -0.245 | -0.075 | 0.145
